The record followed here is patent publication US5196421A, “Excitatory amino acid receptor antagonists in methods for the use thereof” (priority 1992, dated 1993).

Several values for one entry are separate records, joined by “and”; a condition that tells them apart may be missing. Equal values may be shown once.

For assay [1], the target named is T1, Strychnine-Insensitive [^3 H]Glycine Binding Sites, washed membranes of rat brain cortex (Rattus norvegicus, UniProt P35439).
T1 construct: washed membranes of rat brain cortex; from tissue; host or cells: brain cortex membranes, male Sprague-Dawley rats (150-175 g)
Put plainly: biochemical. Particulars: 1 h, read-out: [^3 H]-Glycine Binding % DSPL10 @ 10 μM, 10 μM test compound, 60 minutes on ice. On the procedure: (§1) Referring to Table IV, there are shown the results obtained in testing a representative number of these compounds. In Table IV, the activity of the compounds for EAA receptor binding is indicated. Compounds were evaluated for their ability to displace [^3 H]-CGS191755, [^3 H]-glycine, [^3 H]-AMPA and [^3 H]-kainate at a screening concentration of 10 μM.
(§2) Binding assays, except for glycine binding, were performed in accordance with the methods described in Schoepp et al., J. Pharmacology and Exp. Therap., Vol. 255, No. 3, pp. 1301-1308 (1990). For all binding assays, male Sprague-Dawley rats (150-175 g) were used. Displacement of the specific binding of ^3 H]CGS19755 (10 nM) to Triton-X-treated synaptosomal membranes of rat forebrain was used to determine NMDA receptor affinity. Nonspecific binding was determined using 10 μM L-glutamate. Samples were incubated in an ice bath for 30 minutes, and bound ligand was separated from the free ligand by rapid filtration through Whatman GF/B glass fiber filters.
The compounds were examined for their ability to displace [^3 H]-glycine from washed membranes of rat brain cortex according to the methods of Shinohara et al., "Ontogeny of Strychnine-Insensitive [^3 H]Glycine Binding Sites in Rat Forebrain", Neurosci. Lett. 105 (1990) 307-311. In each assay, […] [^3 H]-glycine and 25 μg tissue were incubated with test compounds (10 μM in a total volume of 0.5 ml for 60 minutes on ice; incubations were terminated by centrifugation. Non-specific binding was defined as that remaining in the presence of 10 μM D-serine.

Assay [2] has as its system AMPA receptor ([^3 H]AMPA binding, crude membranes of rat forebrain). Put plainly: [^3 H]-AMPA displacement, EAA receptor binding. As to conditions: 10 μM test compound, [^3 H]AMPA 5 nM, 100 mM KSCN. As to the method:
as §1, §2
The binding of [^3 H]AMPA (5 nM) was conducted with crude membranes of rat forebrain in the presence of 100 mM KSCN, as described by Nielsen et al., "Studies on Receptor-Active Conformations of Excitatory Amino Acid Agonists and Antagonists," Eur. J. Med. Chem. Chim. Ther. 21:433-437 (1986). Nonspecific binding was determined with 10 μM nonlabeled AMPA.

In assay [3] the test system is kainate (KA) receptor ([^3 H]Kainate binding, washed synaptosomal membranes from the rat forebrain). Put plainly: [^3 H]-kainate displacement, EAA receptor binding. As to conditions: 10 μM test compound, [^3 H]Kainate 5 nM, pH 7.4, 30 min. On the procedure:
as §1, §2
[^3 H]Kainate binding was performed using washed synaptosomal membranes from the rat forebrain, prepared as described by Simon et al., "Binding of [^3 H]Kainic Acid, an Analogue of L-Glutamate, to Brain Membranes," J. Neurochem. 26:141-147 (1976). [^3 H]Kainate (5 nM) was added to 50 mM Tris-HCl buffer (pH 7.4 at 4°) containing 200-300 μg/ml of tissue protein. Samples were incubated for 30 minutes in an ice bath and then rapidly filtered using a Brandel cell harvester and Whatman GF/C filters. Filters were washed twice with 3 ml of cold buffer. Nonspecific binding was determined using 100 μM nonlabeled kainate.

As to `O=c1[nH]c2c(Cl)cc(Cl)cc2c2ccnn12` [Compound 33, 7,9-dichloropyrazolo[1,5-c]quinazolin-5(6H)-one], in assay [1], the inhibition at 10 µM was -3%. Besides, in assay [2], the “AMPA % DSPL @ 10 μM” value is on record as 5.1%. For the same compound, the “KA % DSPL @ 10 μM” value in assay [3] is recorded as 7.4%.
On to `O=c1[nH]c2ccc(Br)cc2n2nnnc12` [Compound 21, 8-bromotetrazolo[1,5-a]quinoxalin-4(5H)-one], for which, in assay [1], the inhibition at 10 µM worked out at 6%. Also, in assay [2], the “AMPA % DSPL @ 10 μM” value was determined as 10.2%. Besides, the “KA % DSPL @ 10 μM” value in assay [3] is on record as 30.8%.
On to `O=[N+]([O-])c1ccc2c(c1)ncc1nncn12` [Compound 16, 7-nitro-1,2,4-triazolo[4,3-a]quinoxaline], for which, in assay [1], the inhibition at 10 µM is -5%. Moreover, in assay [2], the “AMPA % DSPL @ 10 μM” value is 1.7%. Also, in assay [3], the “KA % DSPL @ 10 μM” value came to 3.0%.
For `O=c1[nH]c2cc([N+](=O)[O-])ccc2n2cnnc12` [Compound 17, 7-nitro-1,2,4-triazolo[4,3-a]quinoxalin-4(5H)-one], the inhibition at 10 µM in assay [1] was found to be 52%. Besides, the “AMPA % DSPL @ 10 μM” value in assay [2] (10 µM) was 85.1% and 77.4%. The “KA % DSPL @ 10 μM” value in assay [3] amounted to 34.7%.
As to `CCc1nnc2c(=O)[nH]c3cc(Cl)c(Cl)cc3n12` [Compound 4, 1-ethyl-7,8-dichloro-1,2,4-triazolo[4,3-a]quinoxalin-4(5H)-one], the inhibition at 10 µM in assay [1] came to 53%. Further, the “AMPA % DSPL @ 10 μM” value in assay [2] (10 µM) is 55.1% and 52.3%. Besides, the “KA % DSPL @ 10 μM” value in assay [3] was 21.4%.
Regarding `O=c1[nH]c2ccc([N+](=O)[O-])cc2n2nnnc12` [Compound 22, 8-nitrotetrazolo[1,5-a]quinoxalin-4(5H)-one], the inhibition at 10 µM in assay [1] was 0%. Besides, the “AMPA % DSPL @ 10 μM” value in assay [2] is 0.7%. Further, in assay [3], the “KA % DSPL @ 10 μM” value came to 0.5%.
`O=c1[nH]c2cc(Cl)c(Cl)cc2n2c(C(F)(F)F)nnc12` [Compound 10, 1-trifluoromethyl-7,8-dichloro-1,2,4-triazolo [4,3-a]quinoxalin-4(5H)-one]: in assay [1], the inhibition at 10 µM worked out at 40%. Besides, in assay [2] (10 µM), the “AMPA % DSPL @ 10 μM” value was 56.8% and 38.5%. Besides, the “KA % DSPL @ 10 μM” value in assay [3] came to 12.5%.
As to `O=c1[nH]c2cc(Cl)ccc2c2ccnn12` [Compound 31, 8-chloropyrazolo[1,5-c]quinazolin-5(6H)-one], the inhibition at 10 µM in assay [1] is 42%. Also, the “AMPA % DSPL @ 10 μM” value in assay [2] turned out to be 46%. Also, in assay [3], the “KA % DSPL @ 10 μM” value was 11.5%.
